{
  "source": "patent US10982192B2",
  "about": "“Method for the induction of arterial-type of hemogenic endothelium from hPSCS” (Wisconsin Alumni Research Foundation, priority 2017, dated 2021)",
  "key": {"NOTCH1": {"test_system": "NOTCH1", "experiment": "Western blot of activated cleaved NOTCH1 (NOTCH:ICD) in D4 HE", "assay_type": "cell-based, human", "conditions": "D4 HE cultured for 24 h (D4+1); DAPT 10 μM or immobilized DLL1-Fc", "procedure": "(§1) Human pluripotent stem cells, H1 hESC line, DF19-9-7T fibroblast-hiPSC line, IISH2i-BM9 bone marrow-iPSC line, and IISH3i-CB6 cord blood-iPSC line, were maintained and passaged in chemically defined conditions using vitronectin and E8 medium, as previously described^85. The human PSCs were differentiated into hematoendothelial lineages using a modified protocol previously described^35. On Day −1, hPSCs were singularized and plated on collagen IV-coated plates (0.5 μg/cm^2) at a cell density of 7,500 cells/cm^2 in E8 medium supplemented with 10 uM Rock inhibitor (Y-27632, Cayman Chemicals). On Day 0, the medium was changed to IF9S medium supplemented with BMP4, FGF2 (50 ng/ml), Activin A (15 ng/ml, Peprotech), LiCl (2 mM, Sigma), and ROCK inhibitor (0.5 μM, Cayman Chemicals) and cultured in hypoxia (5% O2, 5% CO2). On day 2, the medium was changed to IF9S medium supplemented with FGF2, VEGF (50 ng/ml, Peprotech), and 2.5 μM TGFβ inhibitor (SB-431542, Cayman Chemicals). On day 4, cell cultures were singularized and stained with anti-CD31 microbeads (Miltenyi) for 15 minutes. Cells were washed and HE were purified using CD31 antibody and MACS LS columns (Miltenyi). […] A sample of the purified cells was analyzed by flow cytometry, and experiments were continued only if the purity of the HE was over 95% CD144^+. […]"}, "HES1": {"test_system": "HES1", "experiment": "qPCR of NOTCH1 target gene HES1 in D4 HE", "assay_type": "cell-based, human", "conditions": "D4 HE cultured for 12 hours (D4+0.5)", "procedure": "as §1, with “CO2).” for “CO2). On day 2, the medium was changed to IF9S medium supplemented with FGF2, VEGF (50 ng/ml, Peprotech), and 2.5 μM TGFβ inhibitor (SB-431542, Cayman Chemicals). On day 4, cell cultures were singularized and stained with anti-CD31 microbeads (Miltenyi) for 15 minutes. Cells were washed and HE were purified using CD31 antibody and MACS LS columns (Miltenyi).”\nCells were differentiated for the respective days and sorted on a FACS Aria II. RNA was collected using RNA MiniPrep Plus (Invitrogen) and quantified on a NanoDrop (GE Healthcare). […] The reactions were run on a Mastercycler RealPlex Thermal Cycler (Eppendorf) and the expression levels were calculated by minimal cycle threshold values (Ct) normalized to the reference expression of RPL13a. […]"}, "[1]": {"test_system": "D4 CD144+CD43-CD73- HE cells", "experiment": "Flow cytometry of CD144/CD43 in secondary culture of D4 HE (hematopoiesis/EHT), serum- and feeder-free", "assay_type": "cell-based, human", "procedure": "Human pluripotent stem cells, H1 hESC line, DF19-9-7T fibroblast-hiPSC line, IISH2i-BM9 bone marrow-iPSC line, and IISH3i-CB6 cord blood-iPSC line, were maintained and passaged in chemically defined conditions using vitronectin and E8 medium, as previously described^85. The human PSCs were differentiated into hematoendothelial lineages using a modified protocol previously described^35. On Day −1, hPSCs were singularized and plated on collagen IV-coated plates (0.5 μg/cm^2) at a cell density of 7,500 cells/cm^2 in E8 medium supplemented with 10 uM Rock inhibitor (Y-27632, Cayman Chemicals). On Day 0, the medium was changed to IF9S medium supplemented with BMP4, FGF2 (50 ng/ml), Activin A (15 ng/ml, Peprotech), LiCl (2 mM, Sigma), and ROCK inhibitor (0.5 μM, Cayman Chemicals) and cultured in hypoxia (5% O2, 5% CO2). On day 2, the medium was changed to IF9S medium supplemented with FGF2, VEGF (50 ng/ml, Peprotech), and 2.5 μM TGFβ inhibitor (SB-431542, Cayman Chemicals). On day 4, cell cultures were singularized and stained with anti-CD31 microbeads (Miltenyi) for 15 minutes. Cells were washed and HE were purified using CD31 antibody and MACS LS columns (Miltenyi). Purified CD31^+ HE were then plated at a density of 20,000 to 30,000 cells/cm^2 on collagen IV-coated plates (1 μg/cm^2) that were either co-coated with IgG-Fc fragments or human DLL1-Fc (made in-house), in IF9S medium supplemented with FGF2, VEGF, EGF, IGF-I, IGF-II, TPO, IL-6 (50 ng/ml), SCF (20 ng/ml), IL-3, FLT3L (10 ng/ml, Peprotech), and ROCK inhibitor (5 μM, Cayman Chemicals), and where specified, DMSO (1:1000, Fisher Scientific) or DAPT (10 μM, Cayman Chemicals), and cultured in normoxia (20% O2, 5% CO2). In some experiments, HE was cultured on plates co-coated with human JAG1-Fc (R&D Systems). A sample of the purified cells was analyzed by flow cytometry, and experiments were continued only if the purity of the HE was over 95% CD144^+. On Day 4+1, the medium was replaced with fresh medium containing the same supplements without ROCK inhibitor. […]"}, "D4 HE": {"test_system": "D4 HE", "experiment": "Single-cell deposition assay for endothelial-to-hematopoietic transition on OP9-iDLL4", "assay_type": "cell-based, human", "conditions": "OP9-iDLL4 without DOX-pretreatment, DAPT 20 μM, compared to control condition", "procedure": "One day before single-cell deposition, the OP9-iDLL4 cell line was treated with mitomycin C as described above, and passaged into 96-well plates at a density of 12,500 cells/cm2. OP9-iDLL4 used for the NOTCH activation condition was incubated with doxycycline for 24 hours after passaging into 96-well plates. On the day of single-cell sorting, OP9-iDLL4 medium was changed to αMEM with 10% FBS (GE), TPO, SCF, IL-6 (50 ng/ml), IL-3, FLT3L (10 ng/ml), and DMSO (1:500) for the control, and NOTCH activation conditions, or DAPT (20 μM) for the NOTCH inhibition condition. Day 4 differentiated human pluripotent stem cells were singularized, stained for CD309-PE and CD144-APC (Miltenyi Biotech), and single-cell sorted into individual wells of the 96-well plates using a FACS Aria II. To exclude possibility of doublets, we used a low density (less than 1 million cells/ml) cells suspension, sorting speed less than 1000 cellular events/per second and stringent gating on single cells using both FSC-A vs FSC-H and SSC-A vs SSC-H. One day after sorting, the medium was changed to fresh medium without DMSO or DAPT, and extra medium was added every 3 days. […]"}, "D4 CD31+ HE cells": {"test_system": "D4 CD31+ HE cells", "experiment": "CellTracer proliferation assay and EdU cell cycle analysis", "assay_type": "cell-based, human", "procedure": "D4 CD31^+ HE cells were incubated in PBS with CellTracer (1 μg/ml, Thermo) for 20 minutes at 37° C. After washing, the cells were plated on collagen IV-coated plates with either Fc-IgG or DLL1-Fc and the modified Day 4 medium, as described above, at a higher density of 30,000 to 40,000 cells/cm^2 due to toxicity from the CellTracer. Aliquots of the purified cells were analyzed by flow cytometry to determine the purity of the MACS cells and establish the Generation 0 peak for the proliferation assay. Secondary cultures were collected every day after plating for flow cytometry analysis, and calibration beads were used to generate compatible CellTracer results. After D4+4, FlowJo™ Analysis software was used to concatenate the data from each day. The average number of cell divisions was calculated based on the number of cells on each day (FIG. 1F) and applied to the proliferation platform algorithm in FlowJo™ to determine the specific generation gates. Those peaks were re-applied to individual sets of data to determine the percentage of each generation within the hematoendothelial populations. For cell cycle analysis, D4+4 cells were incubated in culture medium with EdU (10 μM, Thermo Fisher) for 2 hours and stained with CD43 and CD144 antibodies for 20 min. […]"}, "D4 HE cells": {"test_system": "D4 HE cells", "experiment": "Annexin V flow cytometric analysis of apoptosis", "assay_type": "cell-based, human", "conditions": "D4+4"}, "[2]": {"test_system": "cells collected from D4+4 HE cultures", "experiment": "Hematopoietic colony forming unit assay", "assay_type": "cell-based, human", "conditions": "cells from D4+4 HE cultures in methocellulose, vs control", "procedure": "Hematopoietic colony forming unit assay was conducted in serum-containing H4436 Methocult (Stem Cell Technologies) as previously described^26, 35."}, "Runx1+23 enhancer": {"test_system": "Runx1+23 enhancer", "experiment": "Runx1+23-eGFP reporter flow cytometry", "assay_type": "cell-based, human", "conditions": "D4 HE cultured with DAPT or on DLL1-Fc", "procedure": "Runx1+23 enhancer fragment^33 was amplified by PCR and subsequently cloned into the AAVS-SA-2A-PURO vector (gift from Gadue Lab, The Children's Hospital of Philadelphia). Human ESCs were transfected with zinc-finger nuclease vectors and later puromycin-resistant individual cells were clonally expanded and on-targeted clones were selected, as previously described^38. Southern Blot (SB) analysis was performed by DIG-labeling hybridization (Roche). Briefly, 10 μg genomic DNA was digested using a EcoRV restriction enzyme for overnight, separated on a 0.7% agarose gel for 6 hours, transferred to a nylon membrane (Amersham), and incubated with DIG-labeling probes. The external probe is a DIG-labeled 600 nucleotide fragment that binds to the EcoRV-digested fragment of the 5′ external region. The internal probe is a DIG-labeled 700 nucleotide fragment that binds to the EcoRV-digested fragment of the of the eGFP region.\nFlow Cytometry was conducted using the MACSQuant 10 (Miltenyi Biotech). FACS-sorting was conducted on a FACS Aria II (BD) as previously described^26, 35, 86."}, "D4+4 CD43+ cells": {"test_system": "D4+4 CD43+ cells", "experiment": "T-cell differentiation of D4+4 cultures on OP9-DLL4", "assay_type": "cell-based, human", "procedure": "Total D4+4 cultures were singularized, strained, and cultured in T-cell differentiation conditions on OP9-DLL4 for 3 weeks as described^35. For D5+4 cultures, only the floating hematopoietic cells were collected and cultured in T-cell differentiation conditions. Limiting Dilution Assays were conducted with the floating cells collected from D5+4 cultures (HE:DLL4^− on OP9+DAPT, OP9+DMSO, and OP9-DLL4, and HE:DLL4^+ on OP9-DLL4). Row A of a 96-well plate received 500 cells/well, and each subsequent row afterwards had half the previous row (Row B contained 250, Row C contained 125 . . . Row H contained 3-4 cells). The wells were scored 2 weeks later by eye and flow-cytometry for CD5^+CD7^+ containing cells. Positive threshold was set at 167 CD5^+CD7^+ cells/well. Extreme limiting dilution analysis was conducted using the previously established algorithm^88"}, "D5 HE:DLL4+": {"test_system": "D5 HE:DLL4+", "experiment": "Blood production from D5 HE:DLL4+ in OP9 co-culture with NOTCH inhibition", "assay_type": "cell-based, human", "conditions": "treatment from D5 to D5+2, D5+2 to D5+4, and D5 to D5+4; 20 μM", "procedure": "(§2) OP9, OP9-DLL4, and the inducible OP9-iDLL4 (made in-house) cell lines were maintained in αMEM with 20% FBS (GE) on gelatin-coated plates in normoxia as previously described^86. Using TrypLE (Thermo), OP9 were passaged at a 1:8 ratio every 3-4 days when they were 80% confluent. One day before co-culture with differentiated human HE cells, OP9 lines were treated with mitomycin C (1 mg/ml) for 2 hours and then plated at a density of 12,500 cells/cm^2 as previously described^87. D4 HE cells or D5 CD144^+ subsets were plated onto OP9 lines at a density between 1000 to 2000 cells/cm^2 in medium containing αMEM with 10% FBS (GE), TPO, SCF, IL-6 (50 ng/ml), IL-3, and FLT3L (10 ng/ml). Medium was changed after 24 hours, and extra medium added 2 days later. Experiments conducted with DAPT were treated with 20 μM, while corresponding control conditions had DMSO added at a 1:500 dilution."}, "D5 HE:DLL4-": {"test_system": "D5 HE:DLL4-", "experiment": "Blood production from D5 HE:DLL4- in OP9 co-culture with NOTCH inhibition", "assay_type": "cell-based, human", "conditions": "DAPT 20 μM", "procedure": "as §2"}, "[3]": {"test_system": "CD34+CD43-CD73- HE progenitors", "conditions": "NOTCH inhibition; cited from earlier work"}},
  "data": [
    {"compound": "C[C@H](NC(=O)Cc1cc(F)cc(F)c1)C(=O)N[C@H](C(=O)OC(C)(C)C)c1ccccc1", "note": "[DAPT]", "values": [
      {"measurement": "activated cleaved form of NOTCH1", "setting": "NOTCH1", "value": "decrease"},
      {"measurement": "HES1 mRNA expression", "setting": "HES1", "value": "decreased"},
      {"measurement": "CD43+ HPs", "setting": "[1]; each day from D4+1 to D4+4", "value": "decreased CD43+ HPs"},
      {"measurement": "CD43hi CD144- cells on D4+2 through D4+4", "setting": "[1]; treated for 24-hours from D4 to D4+1", "value": "significant drop"},
      {"measurement": "hematopoiesis", "setting": "[1]; treatment throughout (D4 to D4+4)", "value": "more profoundly decreased hematopoiesis"},
      {"measurement": "ratio of hematopoietic/endothelial colonies", "setting": "D4 HE", "value": "markedly decreased"},
      {"measurement": "cycling CD43+ cells (EdU)", "setting": "D4 CD31+ HE cells; D4+4", "value": "no differences"},
      {"measurement": "distribution of CD43+ cells within each generation", "setting": "D4 CD31+ HE cells; D4+4, treated through D4+4", "value": "no significant shift"},
      {"measurement": "apoptosis of blood cells post-transition", "setting": "D4 HE cells", "value": "none of the conditions affected apoptosis"},
      {"measurement": "total number of colonies", "setting": "[2]", "value": "significantly lower"},
      {"measurement": "Runx1+23 enhancer activity (eGFP)", "setting": "Runx1+23 enhancer", "value": "decreases"},
      {"measurement": "T-cell potential of HPs", "setting": "D4+4 CD43+ cells", "value": "no T-cell potential"},
      {"measurement": "hematopoietic activity of the HE:DLL4+ population", "setting": "D5 HE:DLL4+", "value": "significantly inhibited hematopoietic activity"},
      {"measurement": "hematopoietic activity of HE:DLL4- cultures", "setting": "D5 HE:DLL4-", "value": "no effect on hematopoietic activity"},
      {"measurement": "production of CD45+ cells", "setting": "[3]", "value": "reduces production of CD45^+ cells"}
    ]}
  ]
}
